Results on one compound are retold here after patent US6878690B2, “Compounds and methods” (PharmAxis Pty Ltd., priority 2000, dated 2005).

For this assay, the system named is myelin basic protein (MBP)-specific T lymphocyte cell lines. Nature of the assay: Inhibition of T-lymphocyte migration across rat brain endothelial cell layer (Transwell, 51Cr-labelled cells). Type of assay: cell-based, Lewis rats. The note with it: test substance 10 mmolar in upper well; 6 hours; in comparison with the negative control (glucose 6-phosphate); triplicate. An excerpt: Vascular endothelial cells were isolated from rat brain capillaries taken from 6 to 8 week old Lewis rats according to the method of Risau et al. (Risau, W., Engelhardt, B., and Wekerle, H., (1990). Journal of Cell Biology, vol 110, p 1757-1766, which is incorporated herein by reference). Colonies of endothelial cells were purified from astroglial cells and pericytes by a Thy1.1-mediated complement lysis also after the method of Risau et al. (vide supra). The endothelial colonies, according to methods known in the art, were grown in Dulbecco's minimum essential medium (DMEM) high glucose supplemented, with 20% fetal calf serum (FCS), glutamine, pyruvate, nonessential amino acids, 4-(2-hydroxyethyl)-1-piperazine ethane sulfonic acid buffer (HEPES), kanamycin, amphotericin, heparin (all from Gibco) and 150 micrograms/ml endothelial growth supplement (Collaborative Biomedical Products). Upon reaching confluence, the endothelial cultures were washed with 0.2% EDTA in phosphate buffered saline (PBS), trypsinized (Trypsin-EDTA, 0.1% final concentration, Gibco), washed and again incubated with anti-Thy1.1 antibody for 40 minutes, washed and incubated with complement sufficient to lyse all Thy1.1+ cells (Behringwerke, AG, Marburg, Germany) at room temperature, washed and plated on matrigel-coated 6.5 mm Transwells, […] (Corning Costar Corporation, Cambridge, Mass.). The endothelial cell characteristics and confluence of the monolayer were checked by measuring the electrical resistance (World Precision Instruments, New Haven, U.S.A., model EVOM-G) and by staining with FITC-labeled phalloidin (Sigma). In order to study the effect of the agents of the present invention on T lymphocyte migration, myelin basic protein (MBP)-specific T lymphocyte cell lines were generated according to the method of Ben-Nun et al. (Ben-Nun, A., Wekerle, H. and Cohen, I. R., 1981). The rapid isolation of clonable antigen-specific T lymphocyte lines capable of mediating autoimmune encephalomyelitis. European Journal of Immunology. 1981, 11(3), 195-199; incorporated herein by reference) from the lymph nodes of Lewis rats that had been immunised with MBP in Freund's complete adjuvant. These cells were used for migration studies during the first 4 days of their propagation in IL-2 containing medium, following antigen (MBP) restimulation in the presence of antigen-presenting cells from irradiated spleen cells or thymocytes taken from normal Lewis rats. The antigen-activated T lymphocytes were radio-labelled with sodium chromate (^51Cr, 37 MBq/ml, Amersham, UK) for 30 minutes at 37° C. with occasional agitation, they were then washed three times with the DMEM culture medium and placed into the upper chamber of the Transwells at 5×10^5 cells in 100 microliters of migration medium. Test and control substance were included in the upper wells at final concentrations of 0.1, 1 and 10 mM. Cell migration was monitored by light microscopy in order to gauge progress of the experiment. […] The combined material was transferred into scintillation vials and the radioactivity of each tube determined by counting for 1 minute in a Packard Auto-Gamma 5650 (IL, USA) gamma counter. Each test and the control substance (glucose 6-phosphate) and no treatment were assessed in triplicate. […]

As to `CCCC1OC(COP(=O)(O)O)C(O)C(O)C1O` (stereo not shown) [phosphoric acid mono-(6-propyl-3,4,5-trihydroxy-tetrahydro-pyran-2-ylmethyl) ester], the “% inhibition ± SEM” value was found to be 64 ± 4%.
